Results reported in paper PMC2099433, “The binding site for neohesperidin dihydrochalcone at the human sweet taste receptor” (BMC Structural Biology, 2007).
Positions count from the first letter of the chain named. Where a SMILES comes first, the peptide text is derived from it.

Columns and labels:
[1] = molecular target: T1, hTAS1R2 + hTAS1R3 W775A^6.48 (Homo sapiens, UniProt Q7RTX0+Q8TE23, W775A); experiment: Calcium response (FLIPR), hTAS1R3 mutant coexpressed with hTAS1R2; assay type: cell-based; conditions: for EC50 / Emax: variant W775A^6.48; for EC50: (>) EC50 not calculable because saturation is not reached; for Emax: read-out: maximal signal (% of wt)
T1 construct: expressed in transfected cells; host or cells: HEK293T cells stably expressing G16Gust44
T1 sequence (Q8TE23 20-839): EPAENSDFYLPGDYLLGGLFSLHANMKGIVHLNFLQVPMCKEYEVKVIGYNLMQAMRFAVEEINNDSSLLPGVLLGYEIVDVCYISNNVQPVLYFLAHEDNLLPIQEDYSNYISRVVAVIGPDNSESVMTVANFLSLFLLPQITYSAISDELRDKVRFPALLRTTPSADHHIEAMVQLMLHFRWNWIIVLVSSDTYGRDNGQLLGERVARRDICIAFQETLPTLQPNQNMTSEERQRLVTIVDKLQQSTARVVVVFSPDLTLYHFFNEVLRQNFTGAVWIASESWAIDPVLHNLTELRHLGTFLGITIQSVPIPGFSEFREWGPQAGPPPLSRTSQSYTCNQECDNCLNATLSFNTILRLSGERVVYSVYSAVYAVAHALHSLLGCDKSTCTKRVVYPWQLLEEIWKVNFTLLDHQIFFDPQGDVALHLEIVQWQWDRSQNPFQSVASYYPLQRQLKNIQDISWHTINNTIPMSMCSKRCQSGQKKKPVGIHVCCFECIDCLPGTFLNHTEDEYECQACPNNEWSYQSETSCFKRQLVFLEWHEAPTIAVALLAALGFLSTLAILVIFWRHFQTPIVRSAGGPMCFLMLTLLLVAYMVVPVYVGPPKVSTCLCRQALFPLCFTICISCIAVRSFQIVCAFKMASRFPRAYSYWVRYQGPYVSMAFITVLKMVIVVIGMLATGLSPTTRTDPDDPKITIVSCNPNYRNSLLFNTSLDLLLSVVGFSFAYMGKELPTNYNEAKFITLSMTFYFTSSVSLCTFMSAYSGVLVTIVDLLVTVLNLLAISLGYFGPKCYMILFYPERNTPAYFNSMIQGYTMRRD
T1 sequence (Q7RTX0 21-852 W775A): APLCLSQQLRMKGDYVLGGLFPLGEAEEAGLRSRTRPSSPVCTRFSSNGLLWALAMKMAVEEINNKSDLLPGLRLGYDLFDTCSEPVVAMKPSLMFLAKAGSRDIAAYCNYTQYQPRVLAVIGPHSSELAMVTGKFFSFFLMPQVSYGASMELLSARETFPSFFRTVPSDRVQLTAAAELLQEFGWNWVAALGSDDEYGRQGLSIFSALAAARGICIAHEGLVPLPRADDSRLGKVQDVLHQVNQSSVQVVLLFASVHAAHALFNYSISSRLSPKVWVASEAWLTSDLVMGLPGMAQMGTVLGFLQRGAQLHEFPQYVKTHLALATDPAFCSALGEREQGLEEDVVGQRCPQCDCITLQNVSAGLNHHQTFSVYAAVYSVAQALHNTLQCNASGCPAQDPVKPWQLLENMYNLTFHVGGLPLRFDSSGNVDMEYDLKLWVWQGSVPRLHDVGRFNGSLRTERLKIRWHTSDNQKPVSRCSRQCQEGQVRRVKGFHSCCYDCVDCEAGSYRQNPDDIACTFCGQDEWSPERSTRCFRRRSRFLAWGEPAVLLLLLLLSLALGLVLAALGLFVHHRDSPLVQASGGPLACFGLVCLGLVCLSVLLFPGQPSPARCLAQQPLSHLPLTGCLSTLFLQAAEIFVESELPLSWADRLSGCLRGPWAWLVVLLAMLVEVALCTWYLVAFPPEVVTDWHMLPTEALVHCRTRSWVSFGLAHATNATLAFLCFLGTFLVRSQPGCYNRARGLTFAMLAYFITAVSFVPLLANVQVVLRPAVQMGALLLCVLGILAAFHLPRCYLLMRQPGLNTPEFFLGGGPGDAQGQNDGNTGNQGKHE
Procedure: (§1) The cDNAs for TAS1Rs tagged at the C-terminus with the herpes simplex virus glycoprotein D (HSV) were transiently transfected into HEK293T cells stably expressing the chimeric G-protein subunit G16Gust44 [44] using Lipofectamine 2000 (Invitrogen, Carlsbad, CA) according to the manufacturer's protocol. 3–4 hours after transfection, DMEM was replaced by low-glucose DMEM supplemented with GlutaMAX and 10% dialyzed FBS (Invitrogen, Carlsbad, CA). 24 h post transfection, cells were loaded for 1 h with the calcium sensitive dye Fluo4-AM (2 μg/ml in DMEM, Molecular Probes, Carlsbad, CA). […] We monitored calcium mobilization following receptor stimulation with sweet tastants by an automated fluorometric imaging plate reader (FLIPR, Molecular Devices, Sunnyvale, CA). Compounds used as stimuli (Sigma-Aldrich, St. Louis, MO; Merck, Whitehouse Station, NJ) were dissolved in C1 solution. All data were collected from at least three independent experiments carried out in duplicate. The obtained calcium signals were corrected for the response of mock transfected cells and normalized to the fluorescence of cells prior to the application of the stimulus using ΔF/F = (F-F0)/F0.

[2] = molecular target: T2, hTAS1R2 + hTAS1R3 H734A^5.47 (Homo sapiens, UniProt Q7RTX0+Q8TE23, H734A); experiment: as above; assay type: cell-based; conditions: for receptor response: mutant H734A^5.47; for EC50: variant H734A^5.47, n.f. = no response to any tested sweetener
T2 construct: expressed in transfected cells; host or cells: HEK293T cells stably expressing G16Gust44
T2 sequence (Q8TE23 20-839): T1 sequence (Q8TE23 20-839)
T2 sequence (Q7RTX0 21-852 H734A): T1 sequence (Q7RTX0 21-852 W775A) with H714A, A755W
Procedure: as §1

Row | EC50 [1] [µM] | Emax [1] [%] | receptor response [2] | EC50 [2] | Structure (SMILES) | receptor activation ([1]; mutant W775A^6.48, any tested concentration)
1 | 1900 ± 200 | 20 ± 30 | did not respond | n.f. | COC(=O)[C@H](Cc1ccccc1)NC(=O)[C@@H](N)CC(=O)O [aspartame] (HELM PEPTIDE1{D.F.[CO[*:1]]}$$$$V2.0) | –
2 | – | – | did not respond | – | CC1=CC(=O)NS(=O)(=O)O1 [acesulfame K] | –
3 | > 3000 | 30 ± 41 | did not respond | n.f. | COc1ccc(CCC(=O)c2c(O)cc(O[C@@H]3O[C@H](CO)[C@@H](O)[C@H](O)[C@H]3O[C@@H]3O[C@@H](C)[C@H](O)[C@@H](O)[C@H]3O)cc2O)cc1O [NHDC, neohesperidin dihydrochalcone] | –
4 | – | – | did not respond | – | O=S(=O)(O)NC1CCCCC1 [cyclamate] | could not be activated at any tested concentration
